Reference: patent US20230095021A1, “MODULATORS OF TDP-43” (Alteron Therapeutics, Inc., priority 2019, published 2023)

System: Phe508del-CFTR
Test: Phe508del-CFTR localization, immunofluorescence microscopy, primary bronchial epithelial cells of a cystic fibrosis patient
Assay type: cell-based, human
Conditions: primary bronchial epithelial cells homozygous for Phe508del-CFTR, 2 μM, 3 days
Experimental: MDA-MB-231 and U-87 MG cells were cultured on cover slips under the conditions as described above. Cells were treated with DMSO or 4 μM ALT-59 for 3 days. Primary human bronchial epithelial cells isolated from cystic fibrosis patient homozygous for Phe508del-CFTR (Lifeline Cell Technology) were cultured on cover slips in BronchiaLife Cell Culture Medium supplemented with BrochiaLife LifeFactors Kit (Lifeline Cell Technology) and maintained at 37° C. in a CO2 incubator. Cells were treated with DMSO, 4 μM ALT-59, 2 μM ALT-308, or 4 μM ALT-410 for 3 days.
Cells were fixed in 4% paraformaldehyde for 15 minutes and permeabilized in 0.1% Triton X-100 for 2 minutes. After being blocked in 5% BSA (Sigma-Aldrich), cells were incubated with anti-CFTR antibody (Alomone Labs) followed by Alexa Fluor 488 anti-rabbit secondary antibody. Reagents were buffered in GIBCO PBS (Phosphate-Buffered Saline). Images were taken using Carl Zeiss LSM 510 Laser Scanning Microscope. Parameters were set identical for all images.

| SMILES | localization of Phe508del-CFTR on the plasma membrane |
| --- | --- |
| CC1(C)CC(=O)C2=C(C1)c1c(ccc3ccccc13)NC2c1ccc(C(C)(C)C)cc1 (stereo not shown) [ALT-308, 5-(4-(tert-butyl)phenyl)-2,2-dimethyl-2,3,5,6-tetrahydrobenzo[a]phenanthridin-4(1H)-one] | increased localization of Phe508del-CFTR on the plasma membrane |

System: BACE1
Test: Screening for ALT-59 derivatives with BACE1 protein levels as indicator, U-87 MG cells
Assay type: cell-based
Conditions: 2 days, concentrations as indicated in FIGS. 15-17
Experimental: Additional experiments were performed to screen for compounds with higher potency and the ability to penetrate blood brain barrier using BACE1 protein levels as an indicator. U-87 MG cells were cultured as described previously and treated for 2 days with compounds at concentrations as indicated in FIGS. 15-17. Cells were then subjected to Western blotting analysis using anti-BACE1 and anti-beta-actin antibodies.

| SMILES | BACE1 protein expression |
| --- | --- |
| COc1ccc(C2Nc3c(ccc4ccccc34)C3=C2C(=O)CCC3)cc1Br (stereo not shown) [ALT-108, 6-(3-bromo-4-methoxyphenyl)-6,8,9,10-tetrahydrobenzo[c]phenanthridin-7(5H)-one] | capable of lowering BACE1 expression |
| CC1(C)CC(=O)C2=C(C1)c1c(ccc3ccccc13)NC2c1cccc(OC(F)(F)C(F)F)c1 (stereo not shown) [ALT-110, 2,2-dimethyl-5-(3-(1,1,2,2-tetrafluoroethoxy)phenyl)-2,3,5,6-tetrahydrobenzo[a]phenanthridin-4(1H)-one] | capable of lowering BACE1 expression |
| CC1(C)CC(=O)C2=C(C1)C(c1ccc3c(c1)OCO3)Nc1ccc3ccccc3c12 (stereo not shown) [ALT-201, 5-(benzo[d][1,3]dioxol-5-yl)-3,3-dimethyl-3,4,5,6-tetrahydrobenzo[a]phenanthridin-1(2H)-one] | capable of lowering BACE1 expression |
| CC1(C)CC(=O)C2=C(C1)c1c(ccc3ccccc13)NC2c1ccc(Br)s1 (stereo not shown) [ALT-202, 5-(5-bromothiophen-2-yl)-2,2-dimethyl-2,3,5,6-tetrahydrobenzo[a]phenanthridin-4(1H)-one] | capable of lowering BACE1 expression |
| CC1(C)CC(=O)C2=C(C1)c1c(ccc3ccccc13)NC2c1ccc(Cl)c(Cl)c1 (stereo not shown) [ALT-204, 5-(3,4-dichlorophenyl)-2,2-dimethyl-2,3,5,6-tetrahydrobenzo[a]phenanthridin-4(1H)-one] | capable of lowering BACE1 expression |
| CC1(C)CC(=O)C2=C(C1)c1cc3ccccc3cc1NC2c1ccc2c(c1)OCO2 (stereo not shown) [ALT-205, 5-(benzo[d][1,3]dioxol-5-yl)-2,2-dimethyl-2,3,5,6-tetrahydrobenzo[b]phenanthridin-4(1H)-one] | capable of lowering BACE1 expression |
| CCOc1ccc(C2Nc3ccc4ccccc4c3C3=C2C(=O)CC(C)(C)C3)cc1OC (stereo not shown) [ALT-207, 5-(4-ethoxy-3-methoxyphenyl)-2,2-dimethyl-2,3,5,6-tetrahydrobenzo[a]phenanthridin-4(1H)-one] | capable of lowering BACE1 expression |
| COc1cc(C2Nc3ccc4ccccc4c3C3=C2C(=O)CC(C)(C)C3)cc(Br)c1OC (stereo not shown) [ALT-208, 5-(3-bromo-4,5-dimethoxyphenyl)-2,2-dimethyl-2,3,5,6-tetrahydrobenzo[a]phenanthridin-4(1H)-one] | capable of lowering BACE1 expression |
| CC1(C)CC(=O)C2=C(C1)c1c(ccc3ccccc13)NC2c1cccc(OCc2cc3c(cc2Cl)OCO3)c1 (stereo not shown) [ALT-210, 5-(3-((6-chlorobenzo[d][1,3]dioxol-5-yl)methoxy)phenyl)-2,2-dimethyl-2,3,5,6-tetrahydrobenzo[a]phenanthridin-4(1H)-one] | capable of lowering BACE1 expression |
| COc1cc(C2Nc3ccc4ccccc4c3C3=C2C(=O)CC(C)(C)C3)cc2c1OCO2 (stereo not shown) [ALT-211, 5-(7-methoxybenzo[d][1,3]dioxol-5-yl)-2,2-dimethyl-2,3,5,6-tetrahydrobenzo[a]phenanthridin-4(1H)-one] | capable of lowering BACE1 expression |
| CC1(C)CC(=O)C2=C(C1)c1c(ccc3ccccc13)NC2c1ccc(C(F)(F)F)cc1 (stereo not shown) [ALT-212, 2,2-dimethyl-5-(4-(trifluoromethyl)phenyl)-2,3,5,6-tetrahydrobenzo[a]phenanthridin-4(1H)-one] | capable of lowering BACE1 expression |
| CC1(C)CC(=O)C2=C(C1)c1c(ccc3ccccc13)NC2c1cccc(C(F)(F)F)c1 (stereo not shown) [ALT-215, 2,2-dimethyl-5-(3-(trifluoromethyl)phenyl)-2,3,5,6-tetrahydrobenzo[a]phenanthridin-4(1H)-one] | capable of lowering BACE1 expression |
| Cc1ccc(C2Nc3ccc4ccccc4c3C3=C2C(=O)CC(C)(C)C3)cc1 (stereo not shown) [ALT-306, 2,2-dimethyl-5-(p-tolyl)-2,3,5,6-tetrahydrobenzo[a]phenanthridin-4(1H)-one] | capable of lowering BACE1 expression |
| COc1ccc(C2Nc3ccc4ccccc4c3C3=C2C(=O)CC(C)(C)C3)cc1Br (stereo not shown) [ALT-307, 5-(3-bromo-4-methoxyphenyl)-2,2-dimethyl-2,3,5,6-tetrahydrobenzo[a]phenanthridin-4(1H)-one] | capable of lowering BACE1 expression |
| CC1(C)CC(=O)C2=C(C1)c1c(ccc3ccccc13)NC2c1ccc(C(C)(C)C)cc1 (stereo not shown) [ALT-308, 5-(4-(tert-butyl)phenyl)-2,2-dimethyl-2,3,5,6-tetrahydrobenzo[a]phenanthridin-4(1H)-one] | capable of lowering BACE1 expression |
| CC(C)c1ccc(C2Nc3ccc4ccccc4c3C3=C2C(=O)CC(C)(C)C3)cc1 (stereo not shown) [ALT-309, 5-(4-isopropylphenyl)-2,2-dimethyl-2,3,5,6-tetrahydrobenzo[a]phenanthridin-4(1H)-one] | capable of lowering BACE1 expression |
| CSc1ccc(C2Nc3ccc4ccccc4c3C3=C2C(=O)CC(C)(C)C3)cc1 (stereo not shown) [ALT-311, 2,2-dimethyl-5-(4-(methylthio)phenyl)-2,3,5,6-tetrahydrobenzo[a]phenanthridin-4(1H)-one] | capable of lowering BACE1 expression |
| O=C1CCCC2=C1C(c1ccc(O)c(O)c1)Nc1c2ccc2ccccc12 (stereo not shown) [ALT-317, 6-(3,4-dihydroxyphenyl)-6,8,9,10-tetrahydrobenzo[c]phenanthridin-7(5H)-one] | capable of lowering BACE1 expression |
| CCN(CC)c1ccc(C2Nc3ccc4ccccc4c3C3=C2C(=O)CC(C)(C)C3)cc1 (stereo not shown) [ALT-318, 5-(4-(diethylamino)phenyl)-2,2-dimethyl-2,3,5,6-tetrahydrobenzo[a]phenanthridin-4(1H)-one] | capable of lowering BACE1 expression |
| CC1CCN(c2ccc(C3Nc4ccc5ccccc5c4C4=C3C(=O)CC(C)(C)C4)cc2[N+](=O)[O-])CC1 (stereo not shown) [ALT-322, 2,2-dimethyl-5-(4-(4-methylpiperidin-1-yl)-3-nitrophenyl)-2,3,5,6-tetrahydrobenzo[a]phenanthridin-4(1H)-one] | capable of lowering BACE1 expression |
| Cn1ccnc1Sc1ccc(C2Nc3ccc4ccccc4c3C3=C2C(=O)CC(C)(C)C3)cc1[N+](=O)[O-] (stereo not shown) [ALT-324, 2,2-dimethyl-5-(4-((1-methyl-1H-imidazol-2-yl)thio)-3-nitrophenyl)-2,3,5,6-tetrahydrobenzo[a]phenanthridin-4(1H)-one] | capable of lowering BACE1 expression |
| Cc1ccc(C2Nc3c(ccc4ccccc34)C3=C2C(=O)CC(C)(C)C3)cc1 (stereo not shown) [ALT-333, 9,9-dimethyl-6-(p-tolyl)-6,8,9,10-tetrahydrobenzo[c]phenanthridin-7(5H)-one] | capable of lowering BACE1 expression |
| C#CCOc1c(I)cc(C2Nc3ccc4ccccc4c3C3=C2C(=O)CC(C)(C)C3)cc1OC (stereo not shown) [ALT-402, 5-(3-iodo-5-methoxy-4-(prop-2-yn-1-yloxy)phenyl)-2,2-dimethyl-2,3,5,6-tetrahydrobenzo[a]phenanthridin-4(1H)-one] | capable of lowering BACE1 expression |
| O=C1CCCC2=C1C(c1ccc3c(c1)OCO3)Nc1c2ccc2ncccc12 (stereo not shown) [ALT-403, 6-(benzo[d][1,3]dioxol-5-yl)-6,8,9,10-tetrahydrobenzo[c][1,7]phenanthrolin-7(5H)-one] | capable of lowering BACE1 expression |
| CCN(CC)c1ccc(C2Nc3ccc4ncccc4c3C3=C2C(=O)CC(C)(C)C3)cc1 (stereo not shown) [ALT-404, 8-(4-(diethylamino)phenyl)-11,11-dimethyl-8,10,11,12-tetrahydrobenzo[a][4,7]phenanthrolin-9(7H)-one] | capable of lowering BACE1 expression |
| CCOC(=O)COc1c(Cl)cc(C2Nc3ccc4ccccc4c3C3=C2C(=O)CCC3)cc1OC (stereo not shown) [ALT-406, ethyl 2-(2-chloro-6-methoxy-4-(4-oxo-1,2,3,4,5,6-hexahydrobenzo[a]phenanthridin-5-yl)phenoxy)acetate] | capable of lowering BACE1 expression |
| CCCC(=O)Oc1ccc(C2Nc3ccc4ccccc4c3C3=C2C(=O)CCC3)cc1OC (stereo not shown) [ALT-408, 2-methoxy-4-(4-oxo-1,2,3,4,5,6-hexahydrobenzo[a]phenanthridin-5-yl)phenyl butyrate] | capable of lowering BACE1 expression |
| C=CCOc1ccc(C2Nc3ccc4ccccc4c3C3=C2C(=O)CC(C)(C)C3)cc1OC (stereo not shown) [ALT-409, 5-(4-(allyloxy)-3-methoxyphenyl)-2,2-dimethyl-2,3,5,6-tetrahydrobenzo[a]phenanthridin-4(1H)-one] | capable of lowering BACE1 expression |
| COC(=O)COc1ccc(C2Nc3ccc4ccccc4c3C3=C2C(=O)CCC3)cc1 (stereo not shown) [ALT-411, methyl 2-(4-(4-oxo-1,2,3,4,5,6-hexahydrobenzo[a]phenanthridin-5-yl)phenoxy)acetate] | capable of lowering BACE1 expression |
| COc1cc(C2Nc3ccc4ccccc4c3C3=C2C(=O)CC(C)(C)C3)ccc1OCC(=O)O (stereo not shown) [ALT-413, 2-(4-(2,2-dimethyl-4-oxo-1,2,3,4,5,6-hexahydrobenzo[a]phenanthridin-5-yl)-2-methoxyphenoxy)acetic acid] | capable of lowering BACE1 expression |
